Data on 44 compounds can be found in paper PMC11855827, “High-Throughput Screening of Five Compound Libraries for Anthelmintic Activity and Toxicity Leads to the Discovery of Two Flavonoid Compounds” (International Journal of Molecular Sciences, 2025).

This experiment concerns C. elegans. As to the kind of experiment: microbe, parasite or virus in culture. As to conditions: Caenorhabditis elegans.
Setting [1] is: 0 h, read-out: Percentage of motility inhibition 0 h, Table S2, C. elegans SS assay, 110 μM, 0 h, averages of 4 data points.
Where [2] appears, read: 24 h, read-out: Percentage of motility inhibition 24 h, Table S2, C. elegans SS assay, 110 μM, 24 h, averages of 4 data points.
The mark [3] stands for this setting: 0 h, read-out: Percentage of motility inhibition 0 h.
Setting [4] is: 24 h, read-out: Percentage of motility inhibition 24 h.
The mark [5] stands for this setting: 0 h, read-out: Inhibition (%) 110 μM (0 h), C. elegans L4 motility, 110 μM, 0 h, mean ± SD of four experiments.
Where [6] appears, read: 24 h, read-out: Inhibition (%) 110 μM (24 h), C. elegans L4 motility, 110 μM, 24 h, mean ± SD of four experiments.

Each structure is given as a SMILES string. Read-outs that look alike come from different tables or passages of the source.

Turning to `O=C1C[C@@H](c2ccccc2)Oc2cc(O)cc(O)c21` [Pinocembrin], the inhibition at 110 µM runs as follows: under setting [1], 44%; under setting [2], 5%.
Consider `COc1cc(O)c2c(c1)O[C@H](c1ccccc1)CC2=O` [Pinostrobin], for which the inhibition at 110 µM by setting is: under setting [3], 1%; under setting [4], 7%.
For `CCn1cc(C(=O)O)c(=O)c2cnc(N3CCNCC3)nc21` [Pipemidic acid], the inhibition at 110 µM is, setting by setting: under setting [1], 31%; under setting [2], 14%.
The matching figures for `C1CNCCN1` [Piperazine]: 3% and 0%.
The matching figures for `O=C(/C=C/C=C/c1ccc2c(c1)OCO2)N1CCCCC1` [Piperine]: 0% and 21%.
For `CC1=CC(=O)C(C(C)C)CC1` (stereo not drawn) [Piperitone] the same measures were 10% and 11%.
Consider `CC(C)CNC(=O)/C=C/C=C/c1ccc2c(c1)OCO2` [Piperlonguminine], for which the inhibition at 110 µM is 34% under setting [1] and 22% under setting [2].
For `CCn1cc(C(=O)O)c(=O)c2cnc(N3CCCC3)nc21` [Piromidic acid] the same measures were 9% and 8%.
As for `C[C@@H]1O[C@@H](O[C@H]2[C@H](OC(=O)[C@]34CCC(C)(C)C[C@H]3C3=CC[C@@H]5[C@@]6(C)C[C@H](O)[C@H](O[C@@H]7O[C@H](CO)[C@@H](O)[C@H](O[C@@H]8O[C@H](CO)[C@@H](O)[C@H](O)[C@H]8O)[C@H]7O)C(CO)(CO)[C@@H]6CC[C@@]5(C)[C@]3(C)C[C@H]4O)OC[C@H](O)[C@@H]2O)[C@H](O)[C@H](O)[C@H]1O[C@@H]1OC[C@@H](O)[C@H](O[C@@H]2OC[C@](O)(CO)[C@H]2O)[C@H]1O` [Platycodin D2], the inhibition at 110 µM by setting is: under setting [1], 0%; under setting [2], 2%.
`C[C@@H]1O[C@@H](O[C@H]2[C@H](OC(=O)[C@]34CCC(C)(C)C[C@H]3C3=CC[C@@H]5[C@@]6(C)C[C@H](O)[C@H](O[C@@H]7O[C@H](CO)[C@@H](O)[C@H](O)[C@H]7O)C(CO)(CO)[C@@H]6CC[C@@]5(C)[C@]3(C)C[C@H]4O)OC[C@H](O)[C@@H]2O)[C@H](O)[C@H](O)[C@H]1O[C@@H]1OC[C@@H](O)[C@H](O[C@@H]2OC[C@](O)(CO)[C@H]2O)[C@H]1O` [Platycodin D]: the inhibition at 110 µM runs as follows: under setting [1], 0%; under setting [2], 15%.
The matching figures for `Cc1cc(CCCOc2c(C)cc(-c3noc(C(F)(F)F)n3)cc2C)on1` [Pleconaril]: 4% and 14%.
The matching figures for `C=C[C@]1(C)C[C@@H](OC(=O)CO)[C@]2(C)[C@H](C)CC[C@]3(CCC(=O)[C@H]32)[C@@H](C)[C@@H]1O` [Pleuromutilin]: 33% and 10%.
The matching figures for `COc1cc([C@@H]2c3cc4c(cc3[C@H](O)[C@H]3COC(=O)[C@H]23)OCO4)cc(OC)c1OC` [Podofilox]: 0% and 9%.
As to `C[C@@H]1CC[C@]2(C(=O)O)CC[C@]3(C)C(=CC[C@@H]4[C@@]5(C)CC[C@H](O)C(C)(C)[C@@H]5CC[C@]43C)[C@@H]2[C@]1(C)O` [Pomolic acid], the inhibition at 110 µM under setting [1] was determined as 29% and the inhibition at 110 µM under setting [2] is 67%.
For `COc1ccc([C@@H]2CC(=O)c3c(O)cc(O[C@@H]4O[C@H](CO)[C@@H](O)[C@H](O)[C@H]4O[C@@H]4O[C@@H](C)[C@H](O)[C@@H](O)[C@H]4O)cc3O2)cc1` [Poncirin] the same measures were 13% and 3%.
The matching figures for `C=C1C(=O)[C@@]23[C@@H]4OC5O[C@@]2(O)[C@@H](O)[C@@H]2C(C)(C)CC[C@@H](O)[C@]52[C@@H]3CC[C@@H]14` [Ponicidin]: 4% and 0%.
Turning to `C=C(CC[C@@H](C(=O)O)[C@H]1[C@H](O)C[C@@]2(C)C3=CC[C@@H](C(=C)C)[C@](C)(CCC(=O)O)C3=CC[C@]12C)C(C)C` [Poricoic acid A], the inhibition at 110 µM runs as follows: under setting [3], 2%; under setting [4], 8%.
As for `C=C(C)[C@@H]1CC=C2C(=CC[C@]3(C)[C@@H]([C@@H](CCC=C(C)C)C(=O)O)[C@H](O)C[C@@]23C)[C@@]1(C)CCC(=O)O` [Poricoic acid B], the inhibition at 110 µM was determined as 14% under setting [1] and 0% under setting [2].
Take `CC[C@@H]([C@H](C)O)n1ncn(-c2ccc(N3CCN(c4ccc(OC[C@@H]5CO[C@@](Cn6cncn6)(c6ccc(F)cc6F)C5)cc4)CC3)cc2)c1=O` [Posaconazole]: the inhibition at 110 µM is, setting by setting: under setting [1], 23%; under setting [2], 0%.
Turning to `O=C(C1CCCCC1)N1CC(=O)N2CCc3ccccc3C2C1` (stereo not drawn) [Praziquantel], the inhibition at 110 µM runs as follows: under setting [1], 27%; under setting [2], 0%.
For the compound `O=C(O)CCc1nc2ccccc2[nH]1` [Procodazole], the inhibition at 110 µM was 0% under setting [3] and 3% under setting [4].
For `Oc1cc(O)c2c(c1)O[C@H](c1ccc(O)c(O)c1)[C@H](O)[C@H]2c1c(O)cc(O)c2c1O[C@H](c1ccc(O)c(O)c1)[C@H](O)C2` [Procyanidin B2], the inhibition at 110 µM worked out at 14% under setting [1] and 27% under setting [2].
For `Oc1cc(O)c2c(c1)O[C@H](c1ccc(O)c(O)c1)[C@H](O)[C@H]2c1c(O)cc(O)c2c1O[C@H](c1ccc(O)c(O)c1)[C@H](O)[C@H]2c1c(O)cc(O)c2c1O[C@H](c1ccc(O)c(O)c1)[C@H](O)C2` [Procyanidin C1] the same measures were 2% and 29%.
With `CC(=O)[C@H]1CC[C@H]2[C@@H]3CCC4=CC(=O)CC[C@]4(C)[C@H]3CC[C@]12C` [Progesterone], the inhibition at 110 µM under setting [1] is 0% and the inhibition at 110 µM under setting [2] was 12%.
The matching figures for `[H]/N=C(\N/C(=N/[H])Nc1ccc(Cl)cc1)NC(C)C` [Proguanil]: 36% and 6%.
The matching figures for `CNC(=O)Oc1ccccc1OC(C)C` [Propoxur]: 16% and 9%.
In the case of `CC(C)NCC(O)COc1cccc2ccccc12` (stereo not drawn) [Propranolol, reference compound], the inhibition at 110 µM was determined as 84% under setting [5], 0% under setting [1], 35% under setting [6] and 0% under setting [2].
Consider `CCCOC(=O)c1cc(O)c(O)c(O)c1` [Propyl gallate], for which the inhibition at 110 µM reads like this: under setting [1], 1%; under setting [2], 0%.
Turning to `CCCc1cc(C(N)=S)ccn1` [Prothionamide], the inhibition at 110 µM is 44% under setting [1] and 7% under setting [2].
Take `C=CC1=C(C)c2cc3[nH]c(cc4nc(cc5[nH]c(cc1n2)c(C)c5CCC(=O)O)C(CCC(=O)O)=C4C)c(C)c3C=C` [Protoporphyrin IX]: the inhibition at 110 µM was 3% under setting [1] and 17% under setting [2].
For `Cc1oc(=O)oc1CN1CCN(c2cc3c(cc2F)c(=O)c(C(=O)O)c2n3C(C)S2)CC1` (stereo not drawn) [Prulifloxacin] the same measures were 27% and 0%.
On to `COc1cc(O)c2c(=O)c(-c3ccc(O)cc3)coc2c1` [Prunetin], for which the inhibition at 110 µM under setting [1] came out at 0% and the inhibition at 110 µM under setting [2] was 7%.
For `O=C1C[C@@H](c2ccc(O)cc2)Oc2cc(O[C@@H]3O[C@H](CO)[C@@H](O)[C@H](O)[C@H]3O)cc(O)c21` [Prunin] the same measures were 13% and 2%.
The matching figures for `CC1(C)CC[C@]2(C(=O)O[C@@H]3O[C@H](CO)[C@@H](O)[C@H](O)[C@H]3O)CC[C@]3(C)C(=CC[C@@H]4[C@@]5(C)CC[C@H](O[C@@H]6O[C@H](C(=O)O)[C@@H](O)[C@H](O)[C@H]6O[C@@H]6OC[C@@H](O)[C@H](O)[C@H]6O)C(C)(C)[C@@H]5CC[C@]43C)[C@@H]2C1` [Pseudoginsenoside RT1]: 1% and 0%.
As to `CC(=O)O[C@]12CCC(C)=CC[C@]13CC[C@H]2[C@@](C)(/C=C/C=C(\C)C(=O)O)OC3=O` [Pseudolaric Acid A], the inhibition at 110 µM by setting is: under setting [1], 6%; under setting [2], 13%.
As for `COC(=O)C1=CC[C@@]23CC[C@@H]([C@@](C)(/C=C/C=C(\C)C(=O)O)OC2=O)[C@@]3(OC(C)=O)CC1` [Pseudolaric Acid B], the inhibition at 110 µM is, setting by setting: under setting [3], 0%; under setting [4], 9%.
As to `CC(=O)O[C@]12CCC(C(=O)O)=CC[C@]13CC[C@H]2[C@@](C)(/C=C/C=C(\C)C(=O)O)OC3=O` [Pseudolaric Acid C2], the inhibition at 110 µM by setting is: under setting [1], 0%; under setting [2], 0%.
As to `COC(=O)C1=CC[C@@]23CC[C@@H]([C@@](C)(/C=C/C=C(\C)C(=O)O)OC2=O)[C@@]3(O)CC1` [Pseudolaric Acid C], the inhibition at 110 µM reads like this: under setting [1], 31%; under setting [2], 42%.
Regarding `O=c1ccc2cc3ccoc3cc2o1` [Psoralen], the inhibition at 110 µM by setting is: under setting [3], 14%; under setting [4], 14%.
With `CC(C)=C1CC[C@@H](C)CC1=O` [Pulegone], the inhibition at 110 µM is, setting by setting: under setting [1], 6%; under setting [2], 5%.
Take `CN1CCCN=C1/C=C/c1cccs1` [Pyrantel pamoate, reference compound]: the inhibition at 110 µM by setting is: under setting [5], 94%; under setting [6], 18 ± 18%.
`NC(=O)c1cnccn1` [Pyrazinamide]: the inhibition at 110 µM runs as follows: under setting [1], 4%; under setting [2], 13%.
The matching figures for `Cc1ncc(COP(=O)(O)O)c(C=O)c1O` [Pyridoxal phosphate]: 11% and 4%.
Regarding `Cc1ncc(CO)c(CO)c1O` [Pyridoxine], the inhibition at 110 µM reads like this: under setting [1], 8%; under setting [2], 0%.

As a reminder, the inhibition is the drop in the measured response relative to a control, in per cent.
